Measured values taken from patent US20030134859A1 (SANKYO COMPANY, LIMITED, priority 2000, published 2003).

Experiments:
Rat white adipocytes = experiment: Stimulation of differentiation of the adipocytes (Oil Red O); assay type: cell-based; conditions: Rattus norvegicus, Adipocyte, 120 h, 100 nM test compound; 5 days; Oil Red O ABS550; control = 100%, blank = 0%; Table 7; read-out: Rate of Differentiation (%)
Method in brief: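 Oil Red O lipid staining, absorbance 550 nm after DMSO extraction, quantified differentiation of rat white adipocytes exposed 5 days to compound (final 100 nM, 0.1% DMSO) in differentiation medium. Percent differentiation normalised between cell-free blank (0%) and DMSO control (100%).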

TNF-α production = experiment: Inhibitory activity against cytokine (TNF-α) production in LPS-stimulated RAW264.7 cells; assay type: cell-based, mouse; conditions: Mus musculus, RAW264.7, 15 h, 1 μM test compound, LPS 10 ng/mL
Method in brief: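 Mouse RAW264.7 macrophages (5,000 cells/well) stimulated with 10 ng/mL LPS (final) and treated with test compound at 1 μM final for 15 h at 37 °C. Supernatant mouse TNF-α measured by ELISA; % inhibition = 100−(A−B)/(C−B)×100, using unstimulated and LPS-only controls.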

SMILES | activity at 0.1 µM (Rat white adipocytes) [%] | inhibition at 1 µM (TNF-α production) [%]
CCCCCc1ccc(NC(=O)c2cc([N+](=O)[O-])ccc2Cl)cc1 [Example 16, N-(4-Pentylphenyl)-(2-chloro-5-nitrophenyl)carboxamide] | 136 | 19
CC(C)(C)c1cc(NC(=O)c2cc([N+](=O)[O-])ccc2Cl)cc(C(C)(C)C)c1O [Example 29, N-(3,5-Di-t-butyl-4-hydroxyphenyl)-(2-chloro-5-nitrophenyl)carboxamide] | 111 | 22.9
O=C(Nc1nc(-c2cccnc2)cs1)c1cc([N+](=O)[O-])ccc1Cl [Example 37, N-[4-(3-Pyridyl)thiazol-2-yl)-(2-chloro-5-nitrophenyl)carboxamide] | 114 | 16
Cc1cccc(-c2csc(NC(=O)c3cc([N+](=O)[O-])ccc3Cl)n2)c1 [Example 40, N-[4-(3-Methylphenyl)thiazol-2-yl)-(2-chloro-5-nitrophenyl)carboxamide] | 122 | 27.1
O=C(Nc1nc(-c2cccc3ccccc23)cs1)c1cc([N+](=O)[O-])ccc1Cl [Example 41, N-[4-(1-Naphthyl)thiazol-2-yl]-(2-chloro-5-nitrophenyl)carboxamide] | 118 | 30
Cc1ccc(-c2nc(NC(=O)c3cc([N+](=O)[O-])ccc3Cl)sc2C)cc1Cl [Example 46, N-[4-(3-Chloro-4-methylphenyl)-5-methylthiazol-2-yl]-(2-chloro-5-nitrophenyl)carboxamide] | 124 | 30.7
Cc1nc(NC(=O)c2cc([N+](=O)[O-])ccc2Cl)sc1C [Example 47] | 141 | 16.7
Cc1ccc(NC(=O)c2cc([N+](=O)[O-])ccc2Cl)nc1 [Example 52, N-(5-Methylpyridin-2-yl)-(2-chloro-5-nitrophenyl)carboxamide] | 133 | 16.2
O=C(Nc1ccc2c3c(cccc13)CC2)c1cc([N+](=O)[O-])ccc1Cl [Example 54, N-(Acenaphthen-5-yl)-(2-chloro-5-nitrophenyl)carboxamide] | 118 | 16.8
CCCCCCN(CCCCCC)c1ccc(NC(=O)c2cc([N+](=O)[O-])ccc2Cl)cc1 [Example 138, N-[4-(N,N-di-n-Hexylamino)phenyl]-(2-chloro-5-nitrophenyl)carboxamide] | 126 | 17.8
CC(C)(C)c1cc(C(=O)Nc2ccc(NC(=O)c3cc([N+](=O)[O-])ccc3Cl)cc2)cc(C(C)(C)C)c1O [Example 157, N-[4-[(3,5-di-tert-Butyl-4-hydroxybenzoyl)amino]phenyl]-(2-chloro-5-nitrophenyl)carboxamide] | 116 | 38.6
CCCN(CC)c1ccc(NC(=O)c2cc([N+](=O)[O-])ccc2Cl)cc1 [Example 189, N-[4-(N-Ethyl-N-propylamino)phenyl]-(2-chloro-5-nitrophenyl)carboxamide] | 133 | 16.3
